Assays:
Type in all cases: functional
Cavia porcellus [1] = species on record: Cavia porcellus; assay: In vitro for cardiac calcium channel (CC) agonist activity; Active; conditions: read-out: ED50 (the source's name)
Cavia porcellus [2] = species on record: Cavia porcellus; assay: In vitro for smooth muscle calcium channel antagonist activity; conditions: Muscle tissue
Cavia porcellus [3] = species on record: Cavia porcellus; assay: In vitro cardiac calcium channel (CC) agonist activity; conditions: read-out: ED50 (the source's name)
Cavia porcellus [4] = species on record: Cavia porcellus; assay: In vitro release of nitric oxide by nitrite quantitation in the absence of N-acetyl-cysteamine by Griess reaction
Cavia porcellus [5] = species on record: Cavia porcellus; assay: In vitro release of nitric oxide by nitrite quantitation in the presence of N-acetyl-cysteamine by Griess reaction

| Structure (SMILES) | EC50 (Cavia porcellus [1]) [µM] | IC50 (Cavia porcellus [2]) [µM] | EC50 (Cavia porcellus [3]) [µM] | Release (Cavia porcellus [4]) [%] | Release (Cavia porcellus [5]) [%] |
| --- | --- | --- | --- | --- | --- |
| CO/C(O)=C1\C(C)=NC(C)=C([N+](=O)[O-])[C@H]1c1ccccc1C(F)(F)F | 0.92 | 16 |  |  |  |
| CC1=NC(C)=C([N+](=O)[O-])[C@@H](c2ccccc2C(F)(F)F)/C1=C(\O)OCCO[N+](=O)[O-] |  | 16 | 0.92 |  |  |
| CC1=NC(C)=C([N+](=O)[O-])[C@H](c2ccccc2C(F)(F)F)/C1=C(\O)OCCO[N+](=O)[O-] |  | 0.079 | 16 |  |  |
| CC1=NC(C)=C([N+](=O)[O-])C(c2ccccc2C(F)(F)F)/C1=C(\O)OCCO[N+](=O)[O-] (stereo not given) |  |  |  | 1.09 | 2.7 |
| O=[N+]([O-])OCC(CO[N+](=O)[O-])O[N+](=O)[O-] [NITROGLYCERIN] |  |  |  | 0.18 | 5.3 |
